Assays:
Trypanosoma cruzi [1] = assay: (§1) GSK_TCAKS: pIC50 Trypanosoma cruzi Imaging: Infected Cells. […] Cells were then washed once with PBS before infection. T. cruzi trypomastigotes, collected at days 5 to 8 after infection from LLC-MK2 parasite infected cultures, were allowed to swim out for 4h at 37C from a centrifuged pellet (2,500 rpm/10 min/room temperature). Trypomastigotes were then collected and counted in a CASY Cell Counter. Trypomastigotes, in supplemented DMEM, were added to H9c2 cultures in a multiplicity of infection of 1 and incubated for 18 h. Cells were washed once with PBS before incubation of the infected H9c2 monolayer with trypsin (Life-Technologies) to detach cells from the flask. Cells were counted in a CASY Cell Counter using a 150 um capillary and their density set at 5 * 10^4 cells per mL in supplemented assay DMEM. Infected H9c2 were dispensed into 384-well poly-lysine coated assay plates at 50uL per well using a Multidrop Combi dispenser. After seeding them, the plates were incubated at 37C, 5% CO2 for 72h. Cultures were then fixed and stained by addition of 50 uL of a solution containing 8% formaldehyde and 4 uM DRAQ5 DNA dye (BioStatus, UK) per well. […] Five images were collected per well for reliable statistical analysis. Automated image analysis was performed with a script developed on Acapella High Content Imaging and Analysis Software (PerkinElmer). Output: percentage of infected cells per well as a second infection marker.; assay type: functional, organism-based, Rattus norvegicus; conditions: H9c2, 4 h
Leishmania donovani [2] = assay: (§2) GSK_TCAKS: pIC50 Leishmania donovani Imaging: THP-1 Host Macrophages. Assay plates (384-well) were prepared by adding 250nL of compound to each well. For single shot assay, the final compound concentration was 5 uM. […] Automated image analysis was performed with a script developed on Acapella High Content Imaging and Analysis Software (PerkinElmer). Output: THP-1 cell count were reported for each well.; assay type: functional, organism-based, Homo sapiens
Leishmania donovani [3] = assay: as §2, with “Infected” for “THP-1 Host”, “Percent of infected macrophage cells” for “THP-1 cell count”; assay type: functional, organism-based, Homo sapiens; conditions: THP-1
[4] = system: Trypanosoma brucei brucei; assay: GSK_TCAKS: pIC50 Trypanosoma brucei viability assay using luminiscence. Assay plates (1536-well) were prepared. T. brucei cultures were harvested and counted in a CASY cell counter. A parasite suspension was prepared at a final concentration of 5 * 10^4 cells/mL in complete HMI9 medium and 6uL was dispensed to all wells containing compounds using a Multidrop Combi dispenser. 6uL of HMI9 media with 0.4% DMSO were dispensed to control columns. Plates were incubated for 24 h at 37C, 5% CO2 then tempered for 10 min at room temperature. ATP content was quantified by adding 4 uL of CellTiter-Glo Reagent (Promega) according to the manufacturer's instructions. Luminescence was measured using a ViewLux.; assay type: functional, organism-based; conditions: Lister 427, CASY
[5] = target: Sterol 14-alpha demethylase (Trypanosoma cruzi (strain CL Brener), UniProt Q7Z1V1); assay: GSK_TCAKS: pIC50 CYP51 from Trypanosoma cruzi.; assay type: functional
[6] = system: Trypanosoma brucei brucei; assay: GSK_TCAKS: pIC50 Trypanosoma brucei viability assay using fluorescence intensity. Assay plates (1536-well) were prepared by dispensing 25nL of compound solution per well using an Echo acoustic dispenser (Labcyte).; assay type: functional, organism-based; conditions: Lister 427, 2 h
Leishmania donovani [7] = assay: GSK_TCAKS: pIC50 Leishmania donovani viability assay using fluorescence intensity. Assay plates (1536-well) were prepared by adding 30nL per well of compound. For single shot assay, the final compound concentration was 5uM. […] Briefly, eGFP LdBOB axenic amastigotes were harvested, fixed and counted in a CASY cell counter (Roche-Applied Science). A final concentration of 1.5 * 10^5 cells per well were prepared in amastigote media containing 500 U/mL penicillin/streptomycin (Invitrogen) and 6uL was dispensed to each experimental well using a Multidrop Combi dispenser (Thermo Scientific). 6uL of assay media was dispensed to control columns used as reference for 100% compound response. Following incubation for 72 h at 37C, 5% CO2, 2 uL of resazurin was added to each well at a final concentration of 0.5 mM in phosphate buffered saline (PBS) with IGEPAL (Sigma-Aldrich), 0.05% (v/v).; assay type: functional, organism-based
Trypanosoma cruzi [8] = assay: as §1, with “H2C9” for “Trypanosoma cruzi”, “H9c2 Host Cardiomyocytes.” for “Infected Cells.”, “Number” for “percentage”, “H9c2 Host Cardiomyocytes nuclei to determine drug-related cytotoxicity.” for “infected cells per well as a second infection marker.”; assay type: functional, organism-based, Rattus norvegicus; conditions: H9c2, 4 h
Leishmania donovani [9] = assay: as §2, with “Amastigotes/Macrophages.” for “THP-1 Host Macrophages.”, “Average number of amastigotes per macrophage” for “THP-1”, “cell” for “cell count”; assay type: functional, organism-based, Homo sapiens; conditions: THP-1
Trypanosoma cruzi [10] = assay: GSK_TCAKS: pIC50 Trypanosoma cruzi Imaging: Amastigotes/Cell. […] Cells were then washed once with PBS before infection. T. cruzi trypomastigotes, collected at days 5 to 8 after infection from LLC-MK2 parasite infected cultures, were allowed to swim out for 4h at 37C from a centrifuged pellet (2,500 rpm/10 min/room temperature). Trypomastigotes were then collected and counted in a CASY Cell Counter. Trypomastigotes, in supplemented DMEM, were added to H9c2 cultures in a multiplicity of infection of 1 and incubated for 18 h. Cells were washed once with PBS before incubation of the infected H9c2 monolayer with trypsin (Life-Technologies) to detach cells from the flask. Cells were counted in a CASY Cell Counter using a 150 um capillary and their density set at 5 * 10^4 cells per mL in supplemented assay DMEM. Infected H9c2 were dispensed into 384-well poly-lysine coated assay plates at 50uL per well using a Multidrop Combi dispenser. After seeding them, the plates were incubated at 37C, 5% CO2 for 72h. Cultures were then fixed and stained by addition of 50 uL of a solution containing 8% formaldehyde and 4 uM DRAQ5 DNA dye (BioStatus, UK) per well. […] Five images were collected per well for reliable statistical analysis. Automated image analysis was performed with a script developed on Acapella High Content Imaging and Analysis Software (PerkinElmer). Output: number of amastigotes per cell as infection level measurement.; assay type: functional, organism-based, Rattus norvegicus; conditions: H9c2, 4 h
NIH3T3 = assay: GSK_TCAKS: pIC50 NIH 3T3 cell line viability assay using luminiscence. Tissue culture surface treated assay plates (1536-well) were used. […] The 100% cells survival control was determined exposing the host-cells to a 0.5% DMSO concentration, whereas the 100% toxicity control was achieved by seeding the cells in presence of Amphotericin B at 50uM. Plates were incubated for four days at 37C, 5% CO2. The assay readout was developed by addition of 5uL of CellTiter-Glo Reagent following the manufacturer's instructions. Luminiscence was measured using a ViewLux.; assay type: functional, cell-based; conditions: Mus musculus, NIH3T3, 96 h
[11] = GSK_TCAKS: pIC50 HepG2 human cell line viability assay using luminiscence. […] Seeding density was checked to ensure that new mono-layers were not more than 50% confluent at the time of harvesting. Cell suspension was added to 500 mL of the same medium at a final density of 1.2 * 10^5 cells/mL. This cell suspension was dispensed (25 uL, 3000 cells per well) into 384-well clear-bottom plates using a Multidrop Combi dispenser. Prior to addition of the cell suspension, the screening compounds (250 nL) were pre-dispensed into the plates with an Echo liquid handler. Plates were incubated for 48 h at 37C, 5% CO2. After incubation, plates equilibrated at room temperature for 30 min before proceeding to develop the luminescent signal. The signal developer, CellTiter-Glo Reagent, was allowed to equilibrate at room temperature for 30 min and added to the plates (25uL per well) using a Multidrop Combi dispenser. Plates were left for 10 min at room temperature for stabilization and then read using a ViewLux.; assay type: toxicity, cell-based
Trypanosoma cruzi [12] = assay: GSK_TCAKS: pIC50 Trypanosoma cruzi viability assay using beta-GAL activity. This assay was run at single shot at 5uM compound concentration per well. The biological reagents consisted of NIH-3T3 host cells and trypomastigotes parasitic cells; both cell types were set to a 3.3 * 10^5 cells/mL dilution in assay DMEM by means of a CASY cell counter device using a 60um capillary. 6 uL of the mixture were dispensed per well (about 1 * 10^3 host-cells and 1 * 10^3 parasites) with a Multidrop Combi dispenser. […] In all wells, the percentage of DMSO never exceeded 0.5%. Plates incubated for four days at 37C, 5% CO2. The substrate used for the assay fluorescence intensity (FLINT) readout was resorufin-beta-D-galactopiranoside (Sigma-Aldrich) at 5uM per well. It was diluted in PBS supplemented with the soft detergent Igepal (Fluka).; assay type: functional, organism-based, Mus musculus; conditions: Tulahuen, NIH3T3

Sterol 14-alpha demethylase, sequence (Q7Z1V1 whole entry): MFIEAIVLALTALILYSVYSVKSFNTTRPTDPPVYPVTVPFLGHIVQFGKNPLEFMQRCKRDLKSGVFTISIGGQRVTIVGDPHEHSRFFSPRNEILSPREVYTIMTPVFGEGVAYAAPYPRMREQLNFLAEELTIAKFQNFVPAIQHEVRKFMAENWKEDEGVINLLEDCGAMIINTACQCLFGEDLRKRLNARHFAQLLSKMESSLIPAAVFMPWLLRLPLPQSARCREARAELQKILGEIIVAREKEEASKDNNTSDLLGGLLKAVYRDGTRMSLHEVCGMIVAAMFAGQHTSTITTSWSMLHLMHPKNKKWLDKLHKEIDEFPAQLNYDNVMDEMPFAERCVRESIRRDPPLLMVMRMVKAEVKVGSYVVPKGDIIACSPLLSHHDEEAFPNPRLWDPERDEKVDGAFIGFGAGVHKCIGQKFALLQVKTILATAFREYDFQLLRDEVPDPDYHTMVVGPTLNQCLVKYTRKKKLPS

SMILES	IC50 (Trypanosoma cruzi [1]) [µM]	IC50 (Leishmania donovani [2]) [µM]	IC50 (Leishmania donovani [3]) [µM]	IC50 [4] [µM]	IC50 [5] [µM]	IC50 [6] [µM]	IC50 (Leishmania donovani [7]) [µM]	IC50 (Trypanosoma cruzi [8]) [µM]	IC50 (Leishmania donovani [9]) [µM]	IC50 (Trypanosoma cruzi [10]) [µM]	IC50 (NIH3T3) [µM]	IC50 at 48 h [11] [µM]	IC50 (Trypanosoma cruzi [12]) [µM]
C=CCOCC1Cn2nc([N+](=O)[O-])nc2O1 (centres undefined)	1.26	> 50.1	> 50.1	> 39.8	> 100	> 39.8	> 50.1	> 50.1	> 50.1	0.631	> 50.1	> 100	0.501
Cc1ccc(NC(=O)c2ccc(Cl)c(NC(=O)c3ccc([N+](=O)[O-])cc3)c2)cc1	0.501	> 50.1	> 50.1	15.8	> 100	7.94	> 50.1	> 50.1	> 50.1	0.2	20	> 100	0.631
C=CCn1nc([N+](=O)[O-])nc1Oc1ccc(Cl)cc1Cl	0.251	39.8	> 50.1	> 39.8	20	20	> 50.1	> 50.1	39.8	0.126	50.1	> 100	0.251
Cc1c(C#N)c([N+](=O)[O-])nn1Cc1cccc(Cl)c1Cl	0.1	15.8	> 50.1	25.1	> 100	15.8	> 50.1	> 50.1	15.8	0.0398	39.8	79.4	0.2
Cc1c(CNC(=O)c2ccc(Cn3cc(Cl)c([N+](=O)[O-])n3)cc2)cnn1C	1.58	> 50.1	> 50.1	10	> 100	5.01	> 50.1	> 50.1	> 50.1	0.794	> 50.1	> 100	1
Cc1c([N+](=O)[O-])c(C(=O)Nc2sc3c(c2C#N)CCC(C)C3)nn1C (centres undefined)	2.51	> 50.1	31.6	> 39.8	> 100	> 39.8	25.1	> 50.1	15.8	1.58	12.6	> 100	2.51
O=C(Nc1ccc(Br)cn1)c1ccc(Cn2cnc([N+](=O)[O-])n2)cc1	0.126	> 50.1	> 50.1	3.16	> 100	1.58	> 50.1	> 50.1	> 50.1	0.0794	> 50.1	> 100	0.158
O=S(=O)(NCC(c1cccnc1)N1CCN(c2ccccc2F)CC1)c1ccc(F)cc1 (centres undefined)	0.2	> 50.1	> 50.1	> 39.8	0.0794	25.1	3.98	> 50.1	3.98	0.2	> 50.1	> 100	0.501

From ChEMBL document CHEMBL3430912, “GSK Tres Cantos Anti-Kinetoplastid Screening (TCAKS) Data”
